Laboratory results from patent publication US20250230193A1, “CYCLIC COMPOUND HAVING SELECTIVE KRAS INHIBITORY EFFECT ON HRAS AND NRAS” (CHUGAI SEIYAKU KABUSHIKI KAISHA, priority 2022, published 2025).

Legend:
[1] = target: GDP-bound HRAS wild-type protein (Homo sapiens, UniProt P01112); assay: Binding to HRAS by surface plasmon resonance (SPR), Single Cycle Kinetics; details: SPR; KD ratio class
[2] = target: GDP-bound NRAS wild-type protein (Homo sapiens, UniProt P01111); assay: Binding to NRAS by surface plasmon resonance (SPR), Single Cycle Kinetics; details: SPR; KD ratio class
GDP-bound NRAS wild-type protein, sequence (P01111 whole entry): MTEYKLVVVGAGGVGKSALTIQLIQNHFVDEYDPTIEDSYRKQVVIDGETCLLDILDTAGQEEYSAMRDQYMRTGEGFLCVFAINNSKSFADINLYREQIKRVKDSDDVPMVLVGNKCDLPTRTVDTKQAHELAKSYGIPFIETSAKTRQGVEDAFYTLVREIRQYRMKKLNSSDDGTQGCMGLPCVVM

[3] = system: human lung cancer strain NCI-H441; assay: cells; details: NCI-H441, 96 h, read-out: NCI-H441 IC50 (nM)

GDP-bound HRAS wild-type protein, sequence (P01112 whole entry): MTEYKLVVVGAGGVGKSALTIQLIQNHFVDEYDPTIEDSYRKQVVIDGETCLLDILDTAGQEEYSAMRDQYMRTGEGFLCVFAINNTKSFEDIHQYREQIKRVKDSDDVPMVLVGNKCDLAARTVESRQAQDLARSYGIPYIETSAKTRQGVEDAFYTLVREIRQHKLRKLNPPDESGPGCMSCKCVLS

IC50 [3]	Compound	HRAS/KRAS (ratio of KD value for GDP-bound HRAS wild-type protein to KD value for KRAS) [1]	NRAS/KRAS (ratio of KD value for GDP-bound NRAS wild-type protein to KD value for KRAS) [2]
47.4 nM	CCO[C@@H]1C[C@H]2C(=O)NC3(CCC3)C(=O)N(C)[C@@H](C(CC)CC)C(=O)N(C)[C@H](C(=O)N3CCCC3)CC(=O)N(C)[C@@H](C)C(=O)N[C@@H]([C@@H](C)CC)C(=O)N(C)CC(=O)N(C)[C@H]3C/C=C\CCN(C3=O)[C@@H](CC3CCC(F)(F)CC3)C(=O)N(C)CC(=O)N[C@@H](CCc3cc(F)c(C(F)(F)F)c(F)c3)C(=O)N2C1 [PP1436]	A (a compound having 10 or more and less than 20 is denoted as A)	AA (a compound having 20 or more is denoted as AA)
34.7 nM	CCO[C@@H]1C[C@H]2C(=O)NC3(CCC3)C(=O)N(C)[C@@H](C(CC)CC)C(=O)N(C)[C@H](C(=O)N(C)C)CC(=O)N(C)[C@@H](CC3CC3)C(=O)N[C@@H]([C@@H](C)CC)C(=O)N(C)CC(=O)N(C)[C@H]3C/C=C\CCN(C3=O)[C@@H](Cc3ccc(C(F)(F)F)cc3)C(=O)N(C)CC(=O)N[C@@H](CCc3cc(F)c(Cl)c(F)c3)C(=O)N2C1 [PP1233]	A (a compound having 10 or more and less than 20 is denoted as A)	AA (a compound having 20 or more is denoted as AA)
3.8 nM	CCO[C@@H]1C[C@H]2C(=O)NC3(CCC3)C(=O)N(C)[C@@H](C3CCCC3)C(=O)N(C)[C@H](C(=O)N3CCCC3)CC(=O)N(C)[C@@H](CC(C)C)C(=O)N[C@@H]([C@@H](C)CC)C(=O)N(C)CC(=O)N(C)[C@H]3C/C=C\CCN(C3=O)[C@@H](Cc3ccc(C)cc3)C(=O)N(C)CC(=O)N[C@@H](CCc3cc(F)c(C(F)(F)F)c(F)c3)C(=O)N2C1 [PP1416]	A (a compound having 10 or more and less than 20 is denoted as A)	A (a compound having 10 or more and less than 20 is denoted as A)
51.2 nM	CCCCCC[C@H]1C(=O)N[C@@H]([C@@H](C)CC)C(=O)N(C)CC(=O)N(C)[C@H]2C/C=C\CCN(C2=O)[C@@H](Cc2ccc(C(F)(F)F)cc2)C(=O)N(C)CC(=O)N[C@@H](CCc2ccc(Cl)c(Cl)c2)C(=O)N2C[C@H](OCC)C[C@H]2C(=O)NC2(CCC2)C(=O)N(C)[C@@H](C2CCCC2)C(=O)N(C)[C@H](C(=O)N(C)C)CC(=O)N1C [PP1252]	A (a compound having 10 or more and less than 20 is denoted as A)	AA (a compound having 20 or more is denoted as AA)
135 nM	CCO[C@@H]1C[C@H]2C(=O)NC3(CCC3)C(=O)N(C)[C@@H](C3CCCC3)C(=O)N(C)[C@H](C)CC(=O)N(C)[C@@H](CC(C)C)C(=O)N[C@@H]([C@@H](C)CC)C(=O)N(C)CC(=O)N(C)[C@H]3C/C=C\CCN(C3=O)[C@@H](Cc3ccc(F)cc3C)C(=O)N(C)CC(=O)N[C@@H](CCc3cc(F)c(C(F)(F)F)c(F)c3)C(=O)N2C1 [PP1493]	B (a compound having 3 or more and less than 10 is denoted as B)	B (a compound having 3 or more and less than 10 is denoted as B)
34.1 nM	CC[C@H](C)[C@@H]1NC(=O)[C@H](CC)N(C)C(=O)C[C@@H](C(=O)N(C)C)N(C)C(=O)[C@H](C2CCCC2)N(C)C(=O)C2(CCC2)NC(=O)[C@@H]2C[C@@H](C(F)(F)F)CN2C(=O)[C@H](CCc2cc(F)c(C(F)(F)F)c(F)c2)NC(=O)CN(C)C(=O)[C@H](CC2CCCCC2)N2CC/C=C\C[C@@H](C2=O)N(C)C(=O)CN(C)C1=O [PP1465]	A (a compound having 10 or more and less than 20 is denoted as A)	A (a compound having 10 or more and less than 20 is denoted as A)
2.3 nM	CC[C@H](C)[C@@H]1NC(=O)[C@H](CC(C)C)N(C)C(=O)C[C@@H](C(=O)N(C)C)N(C)C(=O)[C@H](C2CCCC2)N(C)C(=O)C2(CC(C)(C)C2)NC(=O)[C@@H]2C[C@@H](F)CN2C(=O)[C@H](CCc2cc(F)c(C(F)(F)F)c(F)c2)NC(=O)CN(C)C(=O)[C@H](Cc2ccc(C(F)(F)F)cc2)N2CC/C=C\C[C@@H](C2=O)N(C)C(=O)CN(C)C1=O [PP1566]	A (a compound having 10 or more and less than 20 is denoted as A)	A (a compound having 10 or more and less than 20 is denoted as A)
140 nM	CCO[C@@H]1C[C@H]2C(=O)NC3(CCC3)C(=O)N(C)[C@@H](C3CCCC3)C(=O)N(C)[C@H](C(=O)N(C)C)CC(=O)N(C)[C@@H](CC3CC3)C(=O)N[C@@H]([C@@H](C)CC)C(=O)N(C)CC(=O)N(C)[C@H]3C/C=C\CCN(C3=O)[C@@H](Cc3ccc(F)cc3)C(=O)N(C)CC(=O)N[C@@H](CCc3cc(F)c(Cl)c(F)c3)C(=O)N2C1 [PP1479]	B (a compound having 3 or more and less than 10 is denoted as B)	A (a compound having 10 or more and less than 20 is denoted as A)
4.1 nM	CCO[C@@H]1C[C@H]2C(=O)NC3(CC(C)(C)C3)C(=O)N(C)[C@@H](C3CCCC3)C(=O)N(C)[C@H](C(=O)N(C)CC)CC(=O)N(C)[C@@H](CC)C(=O)N[C@@H]([C@@H](C)CC)C(=O)N(C)CC(=O)N(C)[C@H]3C/C=C\CCN(C3=O)[C@@H](Cc3ccc(C(F)(F)F)cc3)C(=O)N(C)CC(=O)N[C@@H](CCc3cc(F)c(C(F)(F)F)c(F)c3)C(=O)N2C1 [PP1579]	B (a compound having 3 or more and less than 10 is denoted as B)	A (a compound having 10 or more and less than 20 is denoted as A)
475 nM	CCO[C@@H]1C[C@H]2C(=O)NC3(CCC3)C(=O)N(C)[C@@H](C3CCCC3)C(=O)N(C)[C@H](C(=O)N(C)C)CC(=O)N(C)[C@@H](CC3CC3)C(=O)N[C@@H]([C@@H](C)CC)C(=O)N(C)CC(=O)N(C)[C@H]3C/C=C\CCN(C3=O)[C@@H](Cc3ccc(F)cc3)C(=O)N(C)CC(=O)N[C@@H](CCc3ccc4sccc4c3)C(=O)N2C1 [PP1426]	B (a compound having 3 or more and less than 10 is denoted as B)	A (a compound having 10 or more and less than 20 is denoted as A)
78.2 nM	CCO[C@@H]1C[C@H]2C(=O)NC3(CCC3)C(=O)N(C)[C@@H](C(CC)CC)C(=O)N(C)[C@H](C(=O)N(C)C)CC(=O)N(C)[C@@H](CC(C)C)C(=O)N[C@@H]([C@@H](C)CC)C(=O)N(C)CC(=O)N(C)[C@H]3C/C=C\CCN(C3=O)[C@@H](Cc3ccc(F)cc3)C(=O)N(C)CC(=O)N[C@@H](CCc3cc(F)c(C(F)(F)F)c(F)c3)C(=O)N2C1 [PP1519]	A (a compound having 10 or more and less than 20 is denoted as A)	A (a compound having 10 or more and less than 20 is denoted as A)
76.4 nM	CCO[C@@H]1C[C@H]2C(=O)NC3(CCC3)C(=O)N(C)[C@@H](C3CCCC3)C(=O)N(C)[C@H](C(=O)N(C)C)CC(=O)N(C)[C@@H](CC(C)C)C(=O)N[C@@H]([C@@H](C)CC)C(=O)N(C)CC(=O)N(C)[C@H]3C/C=C\CCN(C3=O)[C@@H](Cc3ccc(F)cc3)C(=O)N(C)CC(=O)N[C@@H](CCc3ccc(Cl)c(Cl)c3)C(=O)N2C1 [PP1482]	B (a compound having 3 or more and less than 10 is denoted as B)	A (a compound having 10 or more and less than 20 is denoted as A)
38.6 nM	CCO[C@@H]1C[C@H]2C(=O)NC3(CCCC3)C(=O)N(C)[C@@H](C3CCCC3)C(=O)N(C)[C@H](C(=O)N(C)C)CC(=O)N(C)[C@@H](CC(C)C)C(=O)N[C@@H]([C@@H](C)CC)C(=O)N(C)CC(=O)N(C)[C@H]3C/C=C\CCN(C3=O)[C@@H](CC3CCC(F)(F)CC3)C(=O)N(C)CC(=O)N[C@@H](CCc3cc(F)c(C(F)(F)F)c(F)c3)C(=O)N2C1 [PP1459]	A (a compound having 10 or more and less than 20 is denoted as A)	A (a compound having 10 or more and less than 20 is denoted as A)
26.8 nM	CCO[C@@H]1C[C@H]2C(=O)NC3(CCC3)C(=O)N(C)[C@@H](C(CC)CC)C(=O)N(C)[C@H](C(=O)N(C)C)CC(=O)N(C)[C@@H](CC3CC3)C(=O)N[C@@H]([C@@H](C)CC)C(=O)N(C)CC(=O)N(C)[C@H]3C/C=C\CCN(C3=O)[C@@H](Cc3ccc(C(F)(F)F)cc3)C(=O)N(C)CC(=O)N[C@@H](CCc3ccc(C(F)(F)F)c(OC)c3)C(=O)N2C1 [PP1211]	B (a compound having 3 or more and less than 10 is denoted as B)	A (a compound having 10 or more and less than 20 is denoted as A)
14 nM	CC[C@H](C)[C@@H]1NC(=O)[C@H](CC)N(C)C(=O)C[C@@H](C(=O)N2CCOCC2)N(C)C(=O)[C@H](C2CCCC2)N(C)C(=O)C2(CCC2)NC(=O)[C@@H]2CCCN2C(=O)[C@H](CCc2cc(F)c(C(F)(F)F)c(F)c2)NC(=O)CN(C)C(=O)[C@H](Cc2ccc(C(F)(F)F)cc2)N2C[C@H](C)[C@H](C)C[C@@H](C2=O)N(C)C(=O)CN(C)C1=O [PP1366]	B (a compound having 3 or more and less than 10 is denoted as B)	A (a compound having 10 or more and less than 20 is denoted as A)
